# Measurements: patent US20230014151A1, “COMBINATION ANTIVIRAL THERAPY FOR MEASLES” (The Trustees of Columbia University in the City of New York, priority 2019, published 2023)
# Read-outs that look alike come from different tables or passages of the source. Square brackets hold non-standard residues; d marks the D form. Peptide text beside a SMILES is read from it. * marks the point of attachment. Cbz = O=C(OCc1ccccc1)*
# Legend:
# 16055 (HIV-1 strain) = conditions: read-out: IC50 16055; pseudovirus, TZM-BL cells
# [1] = system: vesicular stomatitis virus (VSV); conditions: 16 h
# [2] = biological target: viral glycoproteins (H and F); Nectin-4 (Measles virus, UniProt Q786F3); test: beta-galactosidase complementation-based fusion assay, Nectin-4 target cells
# MN (HIV-1 strain) = conditions: read-out: IC50 MN; pseudovirus, TZM-BL cells
# B41 (HIV-1 strain) = conditions: read-out: IC50 B41; pseudovirus, TZM-BL cells
# [3] = system: murine leukemia viruses (MLV); conditions: read-out: IC50 MLV; pseudovirus, TZM-BL cells
# BG505 (HIV-1 strain) = conditions: read-out: IC50 BG505; pseudovirus, TZM-BL cells
# MeV “WTFb” strain = test: in vivo efficacy, intranasal peptides in MeV-infected cotton rats; conditions: intranasal 24 h and 12 h before infection, 5 m/kg dose, 4 days post-infection
# Experimental: FIGS. 84-93 further describe the invention. […] Intranasal administration of MeV-derived peptides protects cotton rats from MV infection. Cotton rats (n=4) were infected intranasally with MeV “WTFb” strain. Treatment was given intranasally 24 h and 12 h before infection in 100 ul (5 m/kg dose of peptides). The animals were euthanized 4 days post-infection.
# virus bearing L454W F = test: lethal infection of suckling mice, intranasal peptide; conditions: intranasal administration
# wt MeV = conditions: in vitro, ex vivo; cited from earlier work
# MeV IC323-EGFP-F L454W = test: organotypic brain cultures (OBC) infected with MeV bearing L454W F; assay type: cell-based, mice
# [4] = biological target: viral glycoproteins (H and F); CD150; test: beta-galactosidase complementation-based fusion assay, CD150 target cells
# Chain of viral glycoproteins (H and F); CD150 (Q786F3 24-112): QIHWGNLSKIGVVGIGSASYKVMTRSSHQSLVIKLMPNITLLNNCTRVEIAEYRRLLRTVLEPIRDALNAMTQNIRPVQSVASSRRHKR
# Chain of viral glycoproteins (H and F); CD150 (Q786F3 113-550): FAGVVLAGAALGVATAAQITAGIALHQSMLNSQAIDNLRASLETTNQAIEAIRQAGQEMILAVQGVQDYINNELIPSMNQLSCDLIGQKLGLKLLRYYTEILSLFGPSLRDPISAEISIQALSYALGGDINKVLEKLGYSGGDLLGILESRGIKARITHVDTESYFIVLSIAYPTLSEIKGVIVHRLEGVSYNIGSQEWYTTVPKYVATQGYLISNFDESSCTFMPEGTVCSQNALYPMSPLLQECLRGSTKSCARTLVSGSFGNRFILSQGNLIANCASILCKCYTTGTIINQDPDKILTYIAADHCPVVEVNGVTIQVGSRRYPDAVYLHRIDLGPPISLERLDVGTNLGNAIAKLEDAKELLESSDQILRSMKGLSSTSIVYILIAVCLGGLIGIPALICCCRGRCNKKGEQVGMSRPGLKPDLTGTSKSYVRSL
# Chain of viral glycoproteins (H and F); Nectin-4 (Q786F3 24-112): as the sequence (Q786F3 24-112) above
smiles,measurement,setting,value
"O=C(CNC(=O)[C@H](Cc1ccccc1)NC(=O)[C@@H](Cc1ccccc1)NC(=O)OCc1ccccc1)NCC(=O)N[C@@H](CO)C(=O)NCC(=O)N[C@@H](CO)C(=O)NCC(=O)N[C@@H](CS)C(=O)O [FIP, Z-D-FFG-GSGSG-C (SEQ ID NO. 52)] (Cbz-[dF]FGGSGSGC-OH)",IC50,16055 (HIV-1 strain),> 5 µM
same,IC50,[1],> 5 µM
same,IC90,[2],> 10000 nM
same,IC50,"[2]; IC50, Table 2 (salient peptides), Nectin-4 target cells",9.72 ± 2.73 µM
same,IC50,"[2]; Nectin4 IC50, Table 3 (extended version)",9.72 ± 2.73 µM
same,IC90,[2]; read-out: Nectin4 IC90,> 10000 nM
same,IC50,MN (HIV-1 strain),> 5 µM
same,IC50,B41 (HIV-1 strain),> 5 µM
same,IC50,[3],> 5 µM
same,IC50,BG505 (HIV-1 strain),> 5 µM
CC[C@H](C)[C@H](NC(=O)[C@H](C)NC(=O)[C@H](CC(N)=O)NC(=O)CNC(=O)[C@H](CC(C)C)NC(=O)[C@H](CC(N)=O)NC(=O)[C@@H](NC(=O)CNC(=O)[C@@H](NC(=O)[C@H](CC(=O)O)NC(=O)[C@H](CC(C)C)NC(=O)[C@H](CCCNC(=N)N)NC(=O)[C@H](CCC(=O)O)NC(=O)[C@H](CC(C)C)NC(=O)[C@H](CO)NC(=O)[C@@H](NC(=O)[C@@H]1CCCN1C(=O)[C@@H]1CCCN1C(C)=O)[C@@H](C)CC)C(C)C)[C@@H](C)O)C(=O)N[C@@H](C)C(=O)N[C@@H](CCCCN)C(=O)N[C@@H](CC(C)C)C(=O)N[C@@H](CCC(=O)O)C(=O)N[C@@H](CC(=O)O)C(=O)N[C@@H](C)C(=O)N[C@@H](CCCCN)C(=O)N[C@@H](CCC(=O)O)C(=O)N[C@@H](CC(C)C)C(=O)N[C@@H](CC(C)C)C(=O)N[C@@H](CCC(=O)O)C(=O)N[C@@H](CO)C(=O)N[C@@H](CO)C(=O)N[C@@H](CC(=O)O)C(=O)N[C@@H](CCC(N)=O)C(=O)N[C@H](C(=O)N[C@@H](CC(C)C)C(=O)N[C@@H](CCCNC(=N)N)C(=O)NCC(=O)N[C@@H](CO)C(=O)NCC(=O)N[C@@H](CO)C(=O)NCC(=O)N[C@@H](CSC1CC(=O)N(CCCC(=O)NCCOCCOCCOCCOCCC(=O)NCCN(CCNC(=O)CCOCCOCCOCCOCCNC(=O)CCCN2C(=O)CC(SC[C@H](NC(=O)CNC(=O)[C@H](CO)NC(=O)CNC(=O)[C@H](CO)NC(=O)CNC(=O)[C@H](CCCNC(=N)N)NC(=O)[C@H](CC(C)C)NC(=O)[C@@H](NC(=O)[C@H](CCC(N)=O)NC(=O)[C@H](CC(=O)O)NC(=O)[C@H](CO)NC(=O)[C@H](CO)NC(=O)[C@H](CCC(=O)O)NC(=O)[C@H](CC(C)C)NC(=O)[C@H](CC(C)C)NC(=O)[C@H](CCC(=O)O)NC(=O)[C@H](CCCCN)NC(=O)[C@H](C)NC(=O)[C@H](CC(=O)O)NC(=O)[C@H](CCC(=O)O)NC(=O)[C@H](CC(C)C)NC(=O)[C@H](CCCCN)NC(=O)[C@H](C)NC(=O)[C@@H](NC(=O)[C@H](C)NC(=O)[C@H](CC(N)=O)NC(=O)CNC(=O)[C@H](CC(C)C)NC(=O)[C@H](CC(N)=O)NC(=O)[C@@H](NC(=O)CNC(=O)[C@@H](NC(=O)[C@H](CC(=O)O)NC(=O)[C@H](CC(C)C)NC(=O)[C@H](CCCNC(=N)N)NC(=O)[C@H](CCC(=O)O)NC(=O)[C@H](CC(C)C)NC(=O)[C@H](CO)NC(=O)[C@@H](NC(=O)[C@@H]3CCCN3C(=O)[C@@H]3CCCN3C(C)=O)[C@@H](C)CC)C(C)C)[C@@H](C)O)[C@@H](C)CC)[C@@H](C)CC)C(=O)O)C2=O)CCO[C@H]2CC[C@@]3(C)C(=CC[C@H]4[C@@H]5CC[C@H]([C@H](C)CCCC(C)C)[C@@]5(C)CC[C@@H]43)C2)C1=O)C(=O)O)[C@@H](C)CC (stereo partly shown) [[HRC450-485-peg4]2-chol],MeV titration of lung homogenates,MeV “WTFb” strain,reduces the viral titer compared to the untreated animals
same,protection from lethal infection,virus bearing L454W F,protects suckling mice from lethal infection
same,IC50,[2],0.125 ± 0.175 µM
same,IC90,[2],378 ± 300 nM
same,IC90,[2]; read-out: Nectin4 IC90,378 ± 300 nM
same,blocking of wt MeV infection (previous work),wt MeV,"blocks infection with wt MeV in vitro, ex vivo and in vivo in cotton rats and mice"
same,spread of virus in OBC (fluorescence),MeV IC323-EGFP-F L454W; 10 nM,only partially inhibitory
same,spread of virus in OBC (fluorescence),MeV IC323-EGFP-F L454W; 100 nM,only isolated single infected cells were observed
same,reduction in the number of MeV N RNA copies,"MeV IC323-EGFP-F L454W; IFNAR1KO OBC, 10 nM, treated post-infection, vs untreated",4 fold
same,"reduction of the viral load (MeV N RNA copies, RT-qPCR)","MeV IC323-EGFP-F L454W; IFNAR1KO OBC, 100 nM, treated post-infection, vs untreated",2 log
same,variation of the viral load,"MeV IC323-EGFP-F L454W; IFNAR1KO OBC, concentrations below 10 nM",No significant variation of the viral load
same,dissemination of virus in OBC expressing human CD150 (SLAM),"MeV IC323-EGFP-F L454W; OBC from IFNAR1KO mice expressing human CD150, highest concentration",blocked dissemination of MeV IC323-EGFP-F L454W at least as well as WT virus
same,spread of virus in OBC (fluorescence),"MeV IC323-EGFP-F L454W; either 100 nM or 10 nM, four days after infection",blocks the spread of MeV-IC323-EGFP-F L454W
same,IC50,[4],100 ± 65.1 nM
same,IC90,[4]; read-out: CD150 IC90,698 ± 22.3 nM
